Data as given in US20090280112A1 (The Regents of the University of California, priority 2008, published 2009).

Experiments:
IGF-1 receptor mRNA = assay: IGF-1 receptor gene expression by quantitative PCR in LAPC-4 cells; format: cell-based, human; conditions: FIG. 6a
Experimental: A large master mix of the above-mentioned components (minus the primers, probe and cDNA) was made for each experiment and aliquoted into individual tubes, one for each cDNA sample. cDNA was then added to the aliquoted master mix. The master mix with cDNA was aliquoted into a 384-well plate, with nine wells used for each cDNA sample. The primers and probes were mixed together and added to the master mix and cDNA in the 384-well plate. PCR was conducted on the ABI 7900HT (Applied Biosystems, CA) using the following cycle parameters: 1 cycle of 95° C. for 10 minutes, 40 cycles of 95° C. for 15 seconds, 60° C. for 1 minute. Analysis was carried out using the SDS software (version 2.3) supplied with the ABI 7900HT. The Ct values for each set of three reactions were averaged for all subsequent calculations. PCR primer and TaqMan probe sequences were either synthesized by Integrated DNA Technologies (Coralville, Iowa) or purchased from Applied Biosystems (Foster City, Calif.).

IGF-1 receptor = IGF-1 receptor content in LAPC-4 cells (immunoprecipitation, western blot); format: cell-based, human
Experimental: At the end of the incubation period, cells were washed twice with PBS and solubilized with lysis buffer (50 mM HEPES pH 7.6, 150 mM NaCl, 0.1% Triton X-100, 1 mM PMSF, 2 mM Na3VO4) for 1 hour at 4° C. […] The immunoprecipitated samples were run on SDS-PAGE, under reducing condition. Following transfer to nitrocellulose membrane, levels of IGF-1 receptor were assessed by western blot. Following an overnight incubation at 4° C., the membranes were washed 3 times with TBST and then incubated with HRP-conjugated anti-rabbit IgG diluted 1:50,000 in the same blocking buffer for 90 minutes at room temperature. After washing, blots were incubated with Super Signal (Pierce Chemicals, Rockford, Ill.), and exposed to film.

[1] = test system: patients with both androgen-dependent and androgen-independent prostate cancer; conditions: Ryan et al. (2008), cited from earlier work
[2] = test system: LAPC-4 prostate cancer cells; assay: LAPC-4 prostate cancer cell growth (CyQuant or BCA cell proliferation assay); format: cell-based, human; conditions: for block of the effect of 1 nM DHT to stimulate proliferation: much smaller effects on non-androgen mediated growth
Experimental: LAPC-4 prostate cancer cells were maintained at 37° C., 5% CO2 in phenol-free RPMI+10% FCS RPMI. Steroid free medium consisted of phenol-free RPMI supplemented with 10% dextran-coated, charcoal-treated serum (10% CDSS RPMI). LAPC-4 cells were incubated in this steroid-free 10% CDSS RPMI for 3 days prior to plating in 96 well plates (5×10^3 cells/well). […] The medium with androgens and inhibitors was refreshed on day 3. The plates were harvested on day 7 by inverting the microplate onto paper towels with gentle blotting to remove growth medium without disrupting adherent cells and freezing them at −80° C. for at least 30 minutes. LAPC-4 prostate cancer cell growth was determined using either the CyQuant cell proliferation assay (Molecular Probes, Eugene, Oreg.) or by the BCA assay (Pierce, Rockford, Ill.). Cell proliferation was calculated as the percent of content versus control cells at day 0.
Each value shown is the mean+SD for triplicate determinations. In FIGS. 1a and 2b, cell proliferation was measured by BCA, and in FIG. 1c by the CyQuant method. In all future studies, the CyQuant method was employed to measure proliferation.

LAPC-4 cells = assay: LAPC-4 growth in soft agar (anchorage independent growth), CyQuant; format: cell-based, human; conditions: 1 nM DHT, 6 days, FIG. 3b
insulin receptor (IR) = conditions: FIG. 5c
Experimental: Level of insulin receptor was determined in 15 μg of total protein run on SDS-PAGE under reducing conditions, transferred to nitrocellulose membrane, and analyzed by probing with an anti-insulin receptor antibody CT-3, diluted 1:1000 in 1% milk, 1% BSA in TBST at 4° C. overnight. The secondary anti-mouse IgG, diluted 1:2000 in the same blocking buffer, was applied for 90 minutes at room temperature. Blots were incubated with SuperSignal, and exposed to film.

C[C@H](Cc1ccc(O)c(O)c1)[C@@H](C)Cc1ccc(O)c(O)c1 [NDGA, Meso-nordihydroguaiaretic acid]
inhibition of the effect of DHT to increase expression of IGF-1 receptor (IGF-1 receptor mRNA; NDGA at 10 μM): completely inhibit
IC50 (IGF-1 receptor; read-out: effects to inhibit DHT-induced IGF-1 receptor content, 3 separate experiments, mean+SEM, FIG. 5e): 11 µM
clinical safety [1]: reasonable safety
effect on PSA ([1]; patients with non-castrate levels of testosterone and a rising PSA): modest declines in PSA
IC50 ([2]; Homo sapiens, LAPC4, 5 separate experiments, mean+SEM, read-out: half-maximal effect to inhibit androgen-stimulated growth): 5 µM
inhibition of the effect of DHT on growth in soft agar (LAPC-4 cells): inhibited anchorage independent growth

COc1cc([C@@H]2c3cc4c(cc3[C@H](O)[C@H]3COC(=O)[C@@H]23)OCO4)cc(OC)c1OC [PPP, picropodophyllin]
block of the effect of 1 nM DHT to stimulate proliferation [2]: completely blocked

Nc1ncnc2c1c(-c1cccc(OCc3ccccc3)c1)cn2C1CC(CN2CCC2)C1 (centres unmarked) [NVP-AEW541]
block of the effect of 1 nM DHT to stimulate proliferation [2]: completely blocked

C[C@]12CCC(=O)C[C@@H]1CC[C@@H]1[C@@H]2CC[C@]2(C)[C@@H](O)CC[C@@H]12 [DHT, dihydrotestosterone]
change in content of insulin receptor (IR) (insulin receptor (IR)): no change
concentration that maximally increases IGF-1 receptor gene expression (IGF-1 receptor mRNA): 0.1 nM
concentration at which a significant effect on IGF-1 receptor content was observed (IGF-1 receptor; FIG. 5b): 0.1 nM
effect on content of the IGF-1 receptor (IGF-1 receptor; western blot, FIG. 5a): markedly increased
affect to stimulate growth above control ([2]; DHT at 10 nM, 7 days, 3 separate experiments, mean+SEM): 83+8%
concentration at which a major effect on proliferation was observed ([2]; FIG. 1b): 0.1 nM
